From patent publication US10315992B2, “Tetracyline compounds” (Tetraphase Pharmaceuticals, Inc., priority 2012, dated 2019)
Values after ≈ are worked out from the molar mass of the structure shown. Where two headings read alike, the source gives them in different places.

How the values were obtained:
[1] = system: Staphylococcus aureus SA100 (ATCC 13709, MSSA, Smith strain); assay: MIC assay, SA100; format: cell-based; details: read-out: MIC SA 100 13709
[2] = system: Staphylococcus aureus SA191 (HA-MRSA, tetracycline-resistant); assay: MIC assay, SA191; format: cell-based; details: MRSA, read-out: MIC SA 191
[3] = system: Staphylococcus aureus SA161 (HA-MRSA, tet(M)); assay: MIC assay, SA161; format: cell-based; details: Staphylococcus aureus, MRSA
[4] = system: Staphylococcus aureus SA158 (tetracycline-resistant tet(K)); assay: MIC assay, SA158; format: cell-based
[5] = system: Enterococcus faecalis EF103 (ATCC 29212); assay: MIC assay, EF103; format: cell-based; details: ATCC29212, read-out: MIC EF 103 29212
[6] = system: Enterococcus faecalis EF159 (tet(M)); assay: MIC assay, EF159; format: cell-based
[7] = system: Enterococcus faecalis EF327 (wound isolate, tet(M)); assay: MIC assay, EF327; format: cell-based
[8] = system: Streptococcus pneumoniae SP106 (ATCC 49619); assay: MIC assay, SP106; format: cell-based; details: ATCC49619, read-out: MIC SP 106 49619
[9] = system: Streptococcus pneumoniae SP160 (tet(M)); assay: MIC assay, SP160; format: cell-based
[10] = system: Streptococcus pyogenes SP312 (2009 clinical isolate, tet(M)); assay: MIC assay, SP312; format: cell-based
[11] = system: Haemophilus influenzae HI262 (tetracycline-resistant, ampicillin-resistant); assay: MIC assay, HI262; format: cell-based; details: read-out: MIC HI 262 33929
[12] = system: Escherichia coli EC155 (tet(A)); assay: MIC assay, EC155; format: cell-based; details: Escherichia coli, read-out: MIC EC 155 tetA
[13] = system: Enterobacter cloacae EC603 (urine isolate); assay: MIC assay, EC603; format: cell-based
[14] = system: Escherichia coli EC878 (MG1655 tolC::kan); assay: microbe, parasite or virus in culture; format: cell-based
[15] = system: Proteus mirabilis PM112 (ATCC 35659); assay: MIC assay, PM112; format: cell-based; details: ATCC35659, read-out: MIC PM 112 35659
[16] = system: Proteus mirabilis PM385 (urine ESBL+ isolate); assay: MIC assay, PM385; format: cell-based
[17] = system: Pseudomonas aeruginosa PA111 (ATCC 27853); assay: MIC assay, PA111; format: cell-based; details: ATCC27853, read-out: MIC PA 111 27853
[18] = system: Pseudomonas aeruginosa PA673 (2009 urine isolate); assay: MIC assay, PA673; format: cell-based
[19] = system: Pseudomonas aeruginosa PA693 (2009 corneal scraping isolate); assay: MIC assay, PA693; format: cell-based
[20] = system: Pseudomonas aeruginosa PA1145 (strain used in murine pneumonia model); assay: MIC assay, PA1145; format: cell-based
[21] = system: Acinetobacter baumannii AB250 (cystic fibrosis isolate, MDR); assay: MIC assay, AB250; format: cell-based
EC 882 imp = assay: MIC assay, EC882; format: cell-based
Source text: Minimum Inhibitory Concentration (MIC) Assay
The assays were run as follows.

[22] = system: Klebsiella pneumoniae KP153 (tet(A), MDR, ESBL+); details: K. pneumoniae tet(A), MDR, ESBL+
KP 194 7E+05 = assay: MIC assay, KP194; details: Table 5
Description: (§1) MICs were determined according to the Clinical and Laboratory Standards Institute (CLSI) guidances (e.g., CLSI. Performance standards for antimicrobial susceptibility testing; nineteenth information supplement. CLSI document M100-S19, CLSI, 940 West Valley Road, Suite 1400, Wayne, Pa. 19087-1898, USA, 2009). Briefly, frozen bacterial strains were thawed and subcultured onto Mueller Hinton Broth (MHB) or other appropriate media (Streptococcus requires blood and Haemophilus requires hemin and NAD). Following incubation overnight, the strains were subcultured onto Mueller Hinton Agar and again incubated overnight. […] Isolated colonies were selected to prepare a starting inoculum equivalent to a 0.5 McFarland standard. […] Test compounds were prepared by dilution in sterile water to a final concentration of 5.128 mg/mL. Antibiotics (stored frozen, thawed and used within 3 hours of thawing) and compounds were further diluted to the desired working concentrations.
(§2) The assays were run as follows. Fifty μL of MHB was added to wells 2-12 of a 96-well plate. One hundred μL of appropriately diluted antibiotics was added to well 1. Fifty μL of antibiotics was removed from well 1 and added to well 2 and the contents of well 2 mixed by pipetting up and down five times. Fifty μL of the mixture in well 2 was removed and added to well 3 and mixed as above. Serial dilutions were continued in the same manner through well 12. Fifty μL was removed from well 12 so that all contained 50 μL. Fifty μL of the working inoculum was then added to all test wells. A growth control well was prepared by adding 50 μL of working inoculum and 50 μL of MHB to an empty well. The plates were then incubated at 37° C. overnight, removed from the incubator and each well was read on a plate reading mirror. The lowest concentration (MIC) of test compound that inhibited the growth of the bacteria was recorded.

PA 884 35151 = assay: MIC assay, PA884; details: Pseudomonas aeruginosa, read-out: MIC PA 884 351 51
Description: as §1, §2

PA 689 = assay: MIC assay, PA689; details: Pseudomonas aeruginosa, read-out: MIC PA 689
Description: as §1, §2

[23] = read-out: MIC SA 158 tetK, S. aureus tet(K), Table 4
[24] = read-out: MIC SA 158 tetK, S. aureus tet(K), Table 5
[25] = read-out: MIC SA 158 tetK, S. aureus tet(K), Table 6
[26] = read-out: MIC SA 158 tetK, S. aureus tet(K), Table 7
[27] = read-out: MIC SA 158 tetK, control compounds
[28] = read-out: MIC SA 158 tetK, control compounds, numeric
[29] = read-out: MIC EF 159 tetM, E. faecalis tet(M), Table 4
[30] = read-out: MIC EF 159 tetM, E. faecalis tet(M), Table 5
[31] = read-out: MIC SP 160 tet M, S. pneumoniae tet(M), Table 6
[32] = read-out: MIC SP 160 tetM, S. pneumoniae tet(M), Table 4
[33] = read-out: MIC SP 160 tetM, S. pneumoniae tet(M), Table 5
[34] = read-out: MIC SP 160 tetM, S. pneumoniae tet(M), Table 7
[35] = read-out: MIC SP 160 tetM, control compounds
[36] = read-out: MIC SP 160 tetM, control compounds, numeric
[37] = MG1655, read-out: MIC EC 878 toIC, E. coli MG1655 tolC::kan, Table 6
[38] = MG1655, read-out: MIC EC 878 toIC, E. coli MG1655 tolC::kan, Table 7
[39] = MG1655, read-out: MIC EC 878 toIC, control compounds
[40] = MG1655, read-out: MIC EC 878 tolC, control compounds, numeric
[41] = Table 7, read-out: MIC EC 882 imp

## CN(C)[C@@H]1C(O)=C(C(N)=O)C(=O)[C@@]2(O)C(O)=C3C(=O)c4c(O)cccc4C[C@H]3C[C@@H]12 [Sancycline, sancycline]
[1]
  MIC: 1 µg/mL (≈ 2.41 µM)
[2]
  MIC: 8 µg/mL (≈ 19.3 µM)
[3]; read-out: MIC SA 161 MRSAtetM
  MIC: 2 µg/mL (≈ 4.83 µM)
[3]; read-out: MIC SA 161 tet M
  MIC: 2 µg/mL (≈ 4.83 µM)
[3]; read-out: MIC SA 161 tetM
  MIC: 2 µg/mL (≈ 4.83 µM)
[4]; [23]
  MIC: 4 µg/mL (≈ 9.65 µM)
[4]; [24]
  MIC: 4 µg/mL (≈ 9.65 µM)
[4]; [25]
  MIC: 4 µg/mL (≈ 9.65 µM)
[4]; [26]
  MIC: 4 µg/mL (≈ 9.65 µM)
[4]; [27]
  MIC: 4 µg/mL (≈ 9.65 µM)
[4]; [28]
  MIC: 4 µg/mL (≈ 9.65 µM)
[5]
  MIC: 8 µg/mL (≈ 19.3 µM)
[6]; [29]
  MIC: 8 µg/mL (≈ 19.3 µM)
[6]; [30]
  MIC: 8 µg/mL (≈ 19.3 µM)
[7]; read-out: MIC EF 327 tet M
  MIC: 4 µg/mL (≈ 9.65 µM)
[7]; read-out: MIC EF 327 tetM
  MIC: 4 µg/mL (≈ 9.65 µM)
[8]
  MIC: 0.25 µg/mL (≈ 0.603 µM)
[9]; [31]
  MIC: 8 µg/mL (≈ 19.3 µM)
[9]; [32]
  MIC: 8 µg/mL (≈ 19.3 µM)
[9]; [33]
  MIC: 8 µg/mL (≈ 19.3 µM)
[9]; [34]
  MIC: 8 µg/mL (≈ 19.3 µM)
[9]; [35]
  MIC: 8 µg/mL (≈ 19.3 µM)
[9]; [36]
  MIC: 8 µg/mL (≈ 19.3 µM)
[10]; read-out: MIC SP 312
  MIC: 4 µg/mL (≈ 9.65 µM)
[10]; read-out: MIC SP 312 tet M
  MIC: 4 µg/mL (≈ 9.65 µM)
[11]
  MIC: 0.5 µg/mL (≈ 1.21 µM)
[12]
  MIC: 32 µg/mL (≈ 77.2 µM)
[13]
  MIC: 32 µg/mL (≈ 77.2 µM)
[13]; read-out: MIC EC 603 tetA
  MIC: 32 µg/mL (≈ 77.2 µM)
[14]; [37]
  MIC: 1 µg/mL (≈ 2.41 µM)
[14]; [38]
  MIC: 1 µg/mL (≈ 2.41 µM)
[14]; [39]
  MIC: 1 µg/mL (≈ 2.41 µM)
[14]; [40]
  MIC: 1 µg/mL (≈ 2.41 µM)
[15]
  MIC: 4 µg/mL (≈ 9.65 µM)
[16]; read-out: MIC PM 385
  MIC: 8 µg/mL (≈ 19.3 µM)
[16]; read-out: MIC PM 385 CTX-M15
  MIC: 8 µg/mL (≈ 19.3 µM)
[17]
  MIC: 33 µg/mL (≈ 79.6 µM)
[18]
  MIC: 32 µg/mL (≈ 77.2 µM)
[18]; read-out: MIC PA 673
  MIC: 33 µg/mL (≈ 79.6 µM)
[19]
  MIC: 33 µg/mL (≈ 79.6 µM)
[19]; read-out: MIC PA 693
  MIC: 33 µg/mL (≈ 79.6 µM)
[20]
  MIC: 33 µg/mL (≈ 79.6 µM)
[20]; read-out: MIC PA 1145
  MIC: 32 µg/mL (≈ 77.2 µM)
[21]
  MIC: 16 µg/mL (≈ 38.6 µM)
[21]; read-out: MIC AB 250
  MIC: 16 µg/mL (≈ 38.6 µM)
EC 882 imp; [41]
  MIC: 0.25 µg/mL (≈ 0.603 µM)
EC 882 imp; read-out: MIC EC 882 imp, Table 6
  MIC: 0.25 µg/mL (≈ 0.603 µM)
[22]; Table 4
  MIC KP 153 tetA: 32 µg/mL (≈ 77.2 µM)
[22]; Table 5
  MIC KP 153 tetA: 32 µg/mL (≈ 77.2 µM)
KP 194 7E+05
  MIC KP 194 7E+05: 32 μg/mL
PA 884 35151
  MIC: 4 µg/mL (≈ 9.65 µM)
PA 689
  MIC: 16 µg/mL (≈ 38.6 µM)

## CN(C)c1cc(NC(=O)CNC(C)(C)C)c(O)c2c1C[C@H]1C[C@H]3[C@H](N(C)C)C(O)=C(C(N)=O)C(=O)[C@@]3(O)C(O)=C1C2=O [Tigecycline, tigecycline]
[1]
  MIC: 0.063 µg/mL (≈ 0.108 µM)
[2]
  MIC: 0.5 µg/mL (≈ 0.854 µM)
[3]; read-out: MIC SA 161 MRSAtetM
  MIC: 0.125 µg/mL (≈ 0.213 µM)
[3]; read-out: MIC SA 161 tet M
  MIC: 0.125 µg/mL (≈ 0.213 µM)
[3]; read-out: MIC SA 161 tetM
  MIC: 0.13 µg/mL (≈ 0.222 µM)
[4]; [23]
  MIC: 0.063 µg/mL (≈ 0.108 µM)
[4]; [24]
  MIC: 0.06 µg/mL (≈ 0.102 µM)
[4]; [25]
  MIC: 0.063 µg/mL (≈ 0.108 µM)
[4]; [26]
  MIC: 0.06 µg/mL (≈ 0.102 µM)
[4]; [27]
  MIC: 0.06 µg/mL (≈ 0.102 µM)
[4]; [28]
  MIC: 0.06 µg/mL (≈ 0.102 µM)
[5]
  MIC: 0.031 µg/mL (≈ 0.0529 µM)
[6]; [29]
  MIC: 0.063 µg/mL (≈ 0.108 µM)
[6]; [30]
  MIC: 0.06 µg/mL (≈ 0.102 µM)
[7]; read-out: MIC EF 327 tet M
  MIC: 0.063 µg/mL (≈ 0.108 µM)
[7]; read-out: MIC EF 327 tetM
  MIC: 0.06 µg/mL (≈ 0.102 µM)
[8]
  MIC: 0.016 µg/mL (≈ 0.0273 µM)
[9]; [31]
  MIC: 0.015 µg/mL (≈ 0.0256 µM)
[9]; [32]
  MIC: 0.016 µg/mL (≈ 0.0273 µM)
[9]; [33]
  MIC: 0.02 µg/mL (≈ 0.0341 µM)
[9]; [34]
  MIC: 0.02 µg/mL (≈ 0.0341 µM)
[9]; [35]
  MIC: 0.02 µg/mL (≈ 0.0341 µM)
[9]; [36]
  MIC: 0.02 µg/mL (≈ 0.0341 µM)
[10]; read-out: MIC SP 312
  MIC: 0.02 µg/mL (≈ 0.0341 µM)
[10]; read-out: MIC SP 312 tet M
  MIC: 0.015 µg/mL (≈ 0.0256 µM)
[11]
  MIC: 1 µg/mL (≈ 1.71 µM)
[12]
  MIC: 0.5 µg/mL (≈ 0.854 µM)
[13]
  MIC: 2 µg/mL (≈ 3.41 µM)
[13]; read-out: MIC EC 603 tetA
  MIC: 2 µg/mL (≈ 3.41 µM)
[14]; [37]
  MIC: 0.031 µg/mL (≈ 0.0529 µM)
[14]; [38]
  MIC: 0.03 µg/mL (≈ 0.0512 µM)
[14]; [39]
  MIC: 0.03 µg/mL (≈ 0.0512 µM)
[14]; [40]
  MIC: 0.03 µg/mL (≈ 0.0512 µM)
[15]
  MIC: 1 µg/mL (≈ 1.71 µM)
[16]; read-out: MIC PM 385
  MIC: 4 µg/mL (≈ 6.83 µM)
[16]; read-out: MIC PM 385 CTX-M15
  MIC: 4 µg/mL (≈ 6.83 µM)
[17]
  MIC: 8 µg/mL (≈ 13.7 µM)
[18]
  MIC: 16 µg/mL (≈ 27.3 µM)
[18]; read-out: MIC PA 673
  MIC: 32 µg/mL (≈ 54.6 µM)
[19]
  MIC: 32 µg/mL (≈ 54.6 µM)
[19]; read-out: MIC PA 693
  MIC: 33 µg/mL (≈ 56.3 µM)
[20]
  MIC: 33 µg/mL (≈ 56.3 µM)
[20]; read-out: MIC PA 1145
  MIC: 16 µg/mL (≈ 27.3 µM)
[20]; read-out: MIC PA 1145 Vivi- source
  MIC: 16 µg/mL (≈ 27.3 µM)
[21]
  MIC: 8 µg/mL (≈ 13.7 µM)
[21]; read-out: MIC AB 250
  MIC: 8 µg/mL (≈ 13.7 µM)
EC 882 imp; Table 6, read-out: MIC EC 882 imp
  MIC: 0.015 µg/mL (≈ 0.0256 µM)
EC 882 imp; [41]
  MIC: 0.02 µg/mL (≈ 0.0341 µM)
[22]; Table 4
  MIC KP 153 tetA: 1 µg/mL (≈ 1.71 µM)
[22]; Table 5
  MIC KP 153 tetA: 1 µg/mL (≈ 1.71 µM)
KP 194 7E+05
  MIC KP 194 7E+05: 8 μg/mL
PA 884 35151
  MIC: 0.063 µg/mL (≈ 0.108 µM)
PA 689
  MIC: 1 µg/mL (≈ 1.71 µM)
